Results from patent publication US20220378923A1, “BET DEGRADER” (KYOWA KIRIN CO., LTD., priority 2019, published 2022).

Target: T1, interaction between BRD2 and E3 ligase DCAF16 (Homo sapiens, UniProt P25440)
T1 construct: expressed in transfected cells; host or cells: HEK293
Assay: Verification of BET-DCAF16 interaction, NanoBRET in HEK293 cells (Test Example 7)
Format: cell-based
Conditions: test compound 10 μmol/L, 2 hours; HEK293 cells expressing Nluc-BRD2 and DCAF16-HaloTag; bortezomib; average of n=3
Experimental: HEK293 cells (ATCC® CRL-1573™) were cultured using a carbon dioxide gas incubator (95% air, 5% CO2) at 37° C. in DMEM, High Glucose, Pyruvate (DMEM: Code No. 11995073, Thermo Fisher Scientific) in which inactivated fetal bovine serum (FBS: Code No. 10099-148 (Thermo Fisher Scientific) was added in an amount to give a final concentration of 10 vol %. A Falcon® 100 mm×20 mm cell culture dish (Code No. 353003, CORNING) was used for cell culture.
A sequence encoding BRD2 was cleaved from pFN21AB3863 (Code No. FHC01342, Kazusa Genome Technologies) using Flexi Enzyme Blend (SgfI and PmeI) (Code No. R1852, Promega) and recombined with pFN31A Nluc CMV-Hygro Flexi® Vector (Code No. N131A, Promega) similarly cleaved using Flexi Enzyme Blend (SgfI and PmeI) to prepare a plasmid pFN31A_BRD2 expressing BRD2 with an Nluc tag added to the N-terminal. A sequence encoding DCAF16 having sgfI and pmeI restriction enzyme sites at both ends was amplified and purified by polymerase chain reaction using two primers, […] (SEQ ID NO: 4) and […] (SEQ ID NO: 5) from cDNA derived from HEK293 cells. Cleavage was performed using Flexi Enzyme Blend (SgfI and PmeI), and pFC27K HaloTag® CMV-neo Flexi® Vector (Code No. G8431, Promega) cleaved using Carboxy Flexi Enzyme Blend (Sgf I and EcoICR I) (Code No. R1901, Promega) was recombined to prepare a plasmid pFC27K_DCAF16 expressing DCAF16 with HaloTag added to the C-terminal. Sequencing was performed and confirmed that the sequence encoding DCAF16 matched NM_001345880.
Cultured HEK293 cells were washed with DPBS, no calcium, no magnesium (DPBS: Code No. 14190144, Thermo Fisher Scientific) and harvested using TrypLE™ Express Enzyme (1×), phenol red (TrypLE: Code No. 12605036, Thermo Fisher Scientific), and prepared to be 4.0×10^5 cells/mL in DMEM. A volume of 12 mL of the cell suspension was seeded in a Falcon® 100 mm×20 mm cell culture dish and cultured in a carbon dioxide gas incubator at 37° C. for 6 hours. For one dish, 12 μg of pFC27K_DCAF16, 0.12 μg of p FN31A_BRD2, 48 μL of FuGENE® HD Transfection Reagent (Code No. E2312, Promega) were added to 600 μL of Opti-MEM™ I Reduced Serum Medium, no phenol red (Opti-MEM: Code No. 11058021, Thermo Fisher Scientific) and mixed. The mixture was allowed to stand for 15 minutes and added to HEK293 cells. After 20 hours, the cells were washed with DPBS, no calcium, no magnesium, harvested from the dish using TrypLE, and then neutralized in DMEM. After centrifugation, the supernatant was discarded, and the cells were prepared to be 2.2×10^5 cells/mL using Opti-MEM containing 4% FBS. HaloTag® NanoBRET™ 618 Ligand contained in NanoBRET™ Nano-Glo® Detection System (Code No. N1662, Promega) and bortezomib as a proteasome inhibitor were added to be a 1000-fold dilution. In addition, a group was prepared to which DMSO was added instead of HaloTag® NanoBRET™ 618 Ligand. 90 μL of the cell suspension was seeded in CulturPlate-96 (Code No. 6005688, PerkinElmer), and allowed to stand in a carbon dioxide gas incubator at 37° C. for 30 minutes. A volume of 10 mmol/L of a solution of the test compound in DMSO was adjusted to be 100 μmol/L with Opti-MEM, 10 μL of the solution was added to each well, and then the mixture was allowed to stand in a carbon dioxide gas incubator at 37° C. for 2 hours. At this time, all the groups were prepared so that the final concentration of DMSO was 0.1 vol % including the group to which the test compound was not added. NanoBRET™ Nano-Glo® Substrate included in the NanoBRET™ Nano-Glo® Detection System was diluted 100-fold with Opti-MEM. After adding 25 μL of the dilution each and stirring for 30 seconds, measurement was performed with an Emission Filter of 460 nm and 620 nm using EnVision (PerkinElmer). The BRET ratio of 10 μmol/L for each test compound was calculated using the following formula. The experiment was performed by n=3 and the average value was calculated. […]

T1 sequence (P25440 whole entry): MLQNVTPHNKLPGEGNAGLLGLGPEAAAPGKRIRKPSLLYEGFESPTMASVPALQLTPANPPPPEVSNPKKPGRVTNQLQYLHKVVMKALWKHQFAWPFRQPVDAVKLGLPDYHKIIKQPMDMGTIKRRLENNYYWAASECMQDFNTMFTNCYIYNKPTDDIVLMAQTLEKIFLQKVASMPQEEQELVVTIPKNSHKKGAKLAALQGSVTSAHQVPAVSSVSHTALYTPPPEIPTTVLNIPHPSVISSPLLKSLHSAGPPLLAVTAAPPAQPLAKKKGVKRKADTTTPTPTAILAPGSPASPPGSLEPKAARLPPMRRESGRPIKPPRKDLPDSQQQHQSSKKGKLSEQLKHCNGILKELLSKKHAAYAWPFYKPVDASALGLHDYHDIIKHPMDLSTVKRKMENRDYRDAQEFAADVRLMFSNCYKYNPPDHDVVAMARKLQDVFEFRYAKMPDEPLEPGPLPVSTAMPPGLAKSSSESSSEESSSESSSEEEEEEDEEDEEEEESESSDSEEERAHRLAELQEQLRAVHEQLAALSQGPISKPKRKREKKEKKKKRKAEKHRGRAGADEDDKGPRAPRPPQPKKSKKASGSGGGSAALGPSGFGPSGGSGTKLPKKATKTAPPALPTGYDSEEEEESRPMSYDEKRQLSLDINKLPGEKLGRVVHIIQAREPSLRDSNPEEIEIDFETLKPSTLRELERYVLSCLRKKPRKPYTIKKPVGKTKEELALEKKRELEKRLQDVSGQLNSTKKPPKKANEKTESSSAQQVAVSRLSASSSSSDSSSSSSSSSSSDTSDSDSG
T1 sequence (Q9NXF7 whole entry partner): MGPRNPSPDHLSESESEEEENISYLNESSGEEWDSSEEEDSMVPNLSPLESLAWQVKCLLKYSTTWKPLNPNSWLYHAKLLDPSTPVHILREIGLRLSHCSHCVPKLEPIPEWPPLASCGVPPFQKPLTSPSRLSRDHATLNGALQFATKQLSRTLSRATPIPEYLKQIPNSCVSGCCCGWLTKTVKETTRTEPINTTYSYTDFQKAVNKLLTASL

| Compound | BRET Ratio |
| --- | --- |
| CCC(=O)N1c2ccccc2[C@H](Nc2ccc(NC(=O)N3CCN(C(=O)C4CCC(N[C@@H]5C[C@H](C)N(C(=O)CC)c6ccccc65)CC4)CC3)cc2)C[C@@H]1C (stereo partly drawn) [Compound 7p, 4-((1R,4r)-4-(((2S,4R)-2-Methyl-1-propionyl-1,2,3,4-tetrahydroquinolin-4-yl)amino)cyclohexane-1-carbonyl)-N-(4-(((2S,4R)-2-methyl-1-propionyl-1,2,3,4-tetrahydroquinolin-4-yl)amino)phenyl)piperazine-1-carboxamide] | 6.8 |
| CCC(=O)N1c2ccccc2[C@H](Nc2ccc(-n3cc(CCNC(=O)[C@H]4CC[C@H](N[C@@H]5C[C@H](C)N(C(=O)CC)c6ccccc65)CC4)nn3)cc2)C[C@@H]1C [Compound 8a, (1R,4r)-4-(((2S,4R)-2-Methyl-1-propionyl-1,2,3,4-tetrahydroquinolin-4-yl)amino)-N-(2-(1-(4-(((2S,4R)-2-methyl-1-propionyl-1,2,3,4-tetrahydroquinolin-4-yl)amino)phenyl)-1H-1,2,3-triazol-4-yl)ethyl)cyclohexane-1-carboxamide] | 7.27 |
| CCC(=O)N1c2ccccc2[C@H](Nc2ccc(-n3cc(CNC(=O)c4ccc(Cn5c(CC)cc6c5CCCC6=O)cc4)nn3)cc2)C[C@@H]1C [Compound 15f, 4-((2-Ethyl-4-oxo-4,5,6,7-tetrahydro-1H-indol-1-yl)methyl)-N-((1-(4-(((2S,4R)-2-methyl-1-propionyl-1,2,3,4-tetrahydroquinolin-4-yl)amino)phenyl)-1H-1,2,3-triazol-4-yl)methyl)benzamide] | 5.99 |
| Cc1sc2c(c1C)C(c1ccc(C(=O)NCc3cn(-c4ccc(C5=N[C@@H](CC(=O)OC(C)(C)C)c6nnc(C)n6-c6sc(C)c(C)c65)cc4)nn3)cc1)=N[C@@H](CC(=O)OC(C)(C)C)c1nnc(C)n1-2 [Compound 3b, tert-Butyl 2-[(S)-4-(4-{4-[(4-{(S)-6-[2-(tert-butoxy)-2-oxoethyl]-2,3,9-trimethyl-6H-thieno[3,2-f][1,2,4]triazolo[4,3-a][1,4]diazepin-4-yl}benzamide)methyl]-1H-1,2,3-triazol-1-yl}phenyl)-2,3,9-trimethyl-6H-thieno[3,2-f][1,2,4]triazolo[4,3-a][1,4]diazepin-6-yl]acetate] | 6.06 |
| CCC(=O)N1c2ccccc2[C@H](Nc2ccc(C(=O)NCC(=O)CNC(=O)c3ccc(N[C@@H]4C[C@H](C)N(C(=O)CC)c5ccccc54)cc3)cc2)C[C@@H]1C [Compound 1l, N,N′-(2-Oxopropane-1,3-diyl)bis(4-{[(2S,4R)-2-methyl-1-propionyl-1,2,3,4-tetrahydroquinolin-4-yl]amino}benzamide)] | 8.03 |
| CCC(=O)N1c2ccccc2[C@H](Nc2ccc(NC(=O)CCCC(=O)Nc3ccc(N[C@@H]4C[C@H](C)N(C(=O)CC)c5ccccc54)cc3)cc2)C[C@@H]1C [Compound 6k, N^1,N^5-Bis(4-(((2S,4R)-2-methyl-1-propionyl-1,2,3,4-tetrahydroquinolin-4-yl)amino)phenyl)glutaramide] | 7.07 |
| CCC(=O)N1c2ccccc2[C@H](Nc2ccc(NC(=O)CCCC(=O)NC3CCN(Cc4cc(O)cc(-c5c(C)noc5C)c4)CC3)cc2)C[C@@H]1C [Compound 12c, N^1-(1-(3-(3,5-Dimethylisoxazol-4-yl)-5-hydroxybenzyl)piperidin-4-yl)-N^5-(4-(((2S,4R)-2-methyl-1-propionyl-1,2,3,4-tetrahydroquinolin-4-yl)amino)phenyl)glutaramide] | 7.6 |
| CCC(=O)N1c2ccccc2[C@H](Nc2ccc(NC(=O)CCCC(=O)NC3CCC(N[C@@H]4C[C@H](C)N(C(=O)CC)c5ccccc54)CC3)cc2)C[C@@H]1C (stereo partly drawn) [Compound 7o, N^1-((1R,4r)-4-(((2S,4R)-2-Methyl-1-propionyl-1,2,3,4-tetrahydroquinolin-4-yl)amino)cyclohexyl)-N^5-(4-(((2S,4R)-2-methyl-1-propionyl-1,2,3,4-tetrahydroquinolin-4-yl)amino)phenyl)glutaramide] | 6.69 |
| CCC(=O)N1c2ccccc2[C@H](Nc2ccc(C(=O)NCc3cn(-c4ccc(N[C@@H]5C[C@H](C)N(C(=O)CC)c6ccccc65)cc4)nn3)cc2)C[C@@H]1C [Compound 3a, 4-{[(2S,4R)-2-Methyl-1-propionyl-1,2,3,4-tetrahydroquinolin-4-yl]amino}-N-{[1-(4-{[(2S,4R)-2-methyl-1-propionyl-1,2,3,4-tetrahydroquinolin-4-yl]amino}phenyl)-1H-1,2,3-triazol-4-yl]methyl}benzamide] | 8.51 |
| CCC(=O)N1c2ccccc2[C@H](Nc2ccc(C(=O)NCCCNC(=O)c3ccc(C4=N[C@@H](CC(=O)OC(C)(C)C)c5nnc(C)n5-c5sc(C)c(C)c54)cc3)cc2)C[C@@H]1C [Compound 1h, tert-Butyl 2-[(S)-2,3,9-trimethyl-4-(4-{[3-(4-{[(2S,4R)-2-methyl-1-propionyl-1,2,3,4-tetrahydroquinolin-4-yl]amino}benzamide)propyl]carbamoyl}phenyl)-6H-thieno[3,2-f][1,2,4]triazolo[4,3-a][1,4]diazepin-6-yl]acetate] | 6.84 |
| CCC(=O)N1c2ccccc2[C@H](Nc2ccc(NC(=O)CCCC(=O)Nc3ccc(Cn4c(C(=O)OCCN(C)C)cc5c4CCCC5=O)cc3)cc2)C[C@@H]1C [Compound 15a, 2-(Dimethylamino)ethyl 1-(4-(5-((4-(((2S,4R)-2-methyl-1-propionyl-1,2,3,4-tetrahydroquinolin-4-yl)amino)phenyl)amino)-5-oxopentanamide)benzyl)-4-oxo-4,5,6,7-tetrahydro-1H-indole-2-carboxylate] | 5.88 |
| CCC(=O)N1c2ccccc2[C@H](Nc2ccc(NC(=O)CNC(=O)N[C@H]3CC[C@H](N[C@@H]4C[C@H](C)N(C(=O)CC)c5ccccc54)CC3)cc2)C[C@@H]1C [Compound 8j, 2-(3-((1R,4R)-4-(((2S,4R)-2-Methyl-1-propionyl-1,2,3,4-tetrahydroquinolin-4-yl)amino)cyclohexyl)ureido)-N-(4-(((2S,4R)-2-methyl-1-propionyl-1,2,3,4-tetrahydroquinolin-4-yl)amino)phenyl)acetamide] | 7.07 |
| CCC(=O)N1c2ccccc2[C@H](Nc2ccc(C(=O)N3CCn4c(-c5ccc(N[C@@H]6C[C@H](C)N(C(=O)CC)c7ccccc76)cc5)cnc4C3)cc2)C[C@@H]1C [Compound 3e, 1-[(2S,4R)-2-Methyl-4-({4-[3-(4-{[(2S,4R)-2-methyl-1-propionyl-1,2,3,4-tetrahydroquinolin-4-yl]amino}phenyl)-5,6,7,8-tetrahydroimidazo[1,2-a]pyrazine-7-carbonyl]phenyl}amino)-3,4-dihydroquinolin-1(2H)-yl]propan-1-one] | 5.96 |
